Measured values taken from paper PMC13254535, “The RecBCD complex interacts directly with the DNA sliding clamp in Escherichia coli” (Nucleic Acids Research, 2026).
Residues, ends and D or L forms follow the SMILES beside them.

Key:
Format in all cases: binding
Design in all cases: made in house
β-clamp [1] = molecular target: T1, β-clamp (Escherichia coli, UniProt P0A988); experiment: Isothermal titration calorimetry (ITC), β-clamp titrated into peptide; settings: 25°C; pH 7.4; one-site model; n = 3; affected by inaccurate peptide concentration and methionine oxidation
T1 sequence (P0A988 whole entry): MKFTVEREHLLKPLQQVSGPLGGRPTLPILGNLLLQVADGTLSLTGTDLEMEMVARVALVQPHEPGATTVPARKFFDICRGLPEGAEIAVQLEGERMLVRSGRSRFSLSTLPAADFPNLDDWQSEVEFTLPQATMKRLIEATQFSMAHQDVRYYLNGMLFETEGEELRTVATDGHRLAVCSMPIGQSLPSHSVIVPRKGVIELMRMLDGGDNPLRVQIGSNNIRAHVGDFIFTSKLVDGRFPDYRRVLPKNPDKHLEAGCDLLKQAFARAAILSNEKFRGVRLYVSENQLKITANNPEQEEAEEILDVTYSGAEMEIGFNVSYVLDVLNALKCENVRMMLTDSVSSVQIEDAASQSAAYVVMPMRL
Method: (§1) Unlabeled and ^2H, ^13C, ^15N-labeled E. coli β-clamp was expressed and purified as previously described. The β-clamp concentration was determined by absorbance at 280 nm measured on a NanoDrop ND-1000 spectrophotometer (Thermo Fisher Scientific Inc.) and using an extinction coefficient calculated by the Expasy ProtParam web tool (https://web.expasy.org/protparam/). All β-clamp concentrations are listed as the protomer concentration. The peptides were readily soluble at micromolar concentration, although at high micromolar concentrations, we cannot rule out the presence of aggregates.
Unlabeled β-clamp was buffer-exchanged into 20 mM sodium phosphate, 100 mM NaCl, 1 mM tris(2-carboxyethyl)phosphine (TCEP), pH 7.4 using a 15-ml spin filter (10 000 MWCO) (Millipore, Darmstadt, Germany). DMSO was added to the β-clamp sample to a final concentration of 0.02% (v/v). RecB nuclease motif peptide ([…]) (dissolved in 100% DMSO) was diluted into the same buffer as above, with a final DMSO concentration of 0.02% (v/v). […] The isothermal titration calorimetry (ITC) experiments were repeated three times and were recorded at 25°C on a Malvern MicroCal PEAQ-ITC instrument (Malvern, Worcestershire, United Kingdom) using a stir speed of 750 rpm. […]

β-clamp [2] = molecular target: T1, β-clamp; experiment: Saturation transfer difference (STD)-NMR of peptides with β-clamp; settings: 150 µM peptide, 1.5 µM β-clamp; 25°C; 20 mM sodium phosphate, 100 mM NaCl, 5 mM DTT, 0.3% DMSO, 5% D2O, pH 7.4; 600 MHz
Method: All peptides, except Pol III C-terminal ([sequence]), were N-terminally acetylated and C-terminally amidated to remove charges in the N-and C-termini, not present in the context of the full-length proteins.
Unlabeled and ^2H, ^13C, ^15N-labeled E. coli β-clamp was expressed and purified as previously described [54]. The β-clamp concentration was determined by absorbance at 280 nm measured on a NanoDrop ND-1000 spectrophotometer (Thermo Fisher Scientific Inc.) and using an extinction coefficient calculated by the Expasy ProtParam web tool (https://web.expasy.org/protparam/) [55]. All β-clamp concentrations are listed as the protomer concentration. The peptides were readily soluble at micromolar concentration, although at high micromolar concentrations, we cannot rule out the presence of aggregates.
Saturation transfer difference (STD)-nuclear magnetic resonance (NMR) experiments were performed at 25°C on a Bruker Avance III HD 600 MHz NMR spectrometer equipped with a 5-mm QCI Cryoprobe. […] Samples were transferred to 5-mm NMR tubes.

β-clamp [3] = molecular target: T1, β-clamp; experiment: 2D TROSY-1H-15N-HSQC chemical shift perturbation of β-clamp; settings: 140 µM 2H,13C,15N-labeled β-clamp, 700 µM peptide (five-fold molar excess); 37°C; 20 mM sodium phosphate, 100 mM NaCl, 5 mM DTT, 2% DMSO, pH 7.4
Method: as §1
2D TROSY-^1H-^15N-HSQC (Two-Dimensional Transverse Relaxation Optimized Spectroscopy Heteronuclear Single Quantum Coherence experiment correlating ^1H and ^15N nuclei) spectra were recorded of 140 µM ^2H, ^13C, ^15N-labeled β-clamp with and without the addition of 700 µM RecB nuclease motif peptide ([…]) in 20 mM sodium phosphate, 100 mM NaCl, 5 mM DTT, 5% (v/v) D2O, 125 µM DSS, 2% (v/v) DMSO, pH 7.4. […] The samples were transferred to 5-mm Shigemi tubes, and the NMR spectra were recorded at 37°C on a Bruker Avance III 750 MHz spectrometer equipped with a cryoprobe. […] The spectra were processed in Topspin (Bruker) and analyzed in CcpNmr Analysis. […] Chemical shift perturbations (CSPs) were calculated using the following equation [57]: […]

SMILES: CSCC[C@H](NC(=O)[C@H](CCC(=O)O)NC(=O)[C@@H](NC(=O)[C@H](CCC(N)=O)NC(=O)[C@H](CCCCN)NC(C)=O)C(C)C)C(=O)N[C@@H](CCC(=O)O)C(=O)N[C@@H](Cc1ccccc1)C(=O)N[C@@H](Cc1ccc(O)cc1)C(N)=O [QVEMEF] (Ac-KQVEMEFY-NH2)
- N-value (stoichiometry) (β-clamp [1]): 0.39 ± 0.02
- STD-NMR binding (β-clamp [2]): shows a distinct STD signal, indicating specific interaction
- chemical shift perturbations (CSPs) of β-clamp residues (β-clamp [3]): The largest CSPs localized to residues surrounding the canonical CBM binding pocket, including L177, Y244, V247, I317, S345, Q348, V361, M364, and R365
